The assay relates to HEK293T viability, CellTiter-Glo ATP luminescence, 72 h. As to the kind of experiment: HEK293 cell cytotoxicity, dose response, cytotoxicity control, luminescence, dry powder, set 15 (AID 743470).

Inconclusive results are not listed.

As for `C=C([C@@H](O)[C@@H](C)O)[C@@H](OC)[C@]1(C)Cc2cc3cc(O[C@H]4CC(OC5CC(O)C(O)C(C)O5)C(O)C(C)O4)cc(O)c3c(O)c2C(=O)[C@H]1OC1CC(OC2CC(OC3CC(C)(O)C(O)C(C)O3)C(O)C(C)O2)C(O)C(C)O1` (stereo not given in full), the AC35 was 188 nM. On to `COc1cc(C2C(C#N)=C(N)Oc3cc(N(C)C)ccc32)cc2c1OCO2` (stereo not given), for which the AC35 is 184 nM. Next, `CC[C@]1(O)CC2CN(CCc3c([nH]c4ccccc34)[C@@](C(=O)OC)(c3cc4c(cc3OC)N(C=O)[C@H]3[C@@](O)(C(=O)OC)[C@H](OC(C)=O)[C@]5(CC)C=CCN6CC[C@]43[C@@H]65)C2)C1` (stereo not given in full): 651 nM. Next, `COc1ccc(S(=O)(=O)N(C(C)=O)c2ccc(OC(C)=O)c3ccccc23)cc1[N+](=O)[O-]`: 21500 nM. Take `CCOC(=O)CCNc1cc(N2CCc3ccccc3CC2)nc(-c2ccccn2)n1`: the AC35 is 9370 nM.

Values taken from PubChem BioAssay AID743470 (Broad Institute, 2014).
